{"source": "PubChem BioAssay (NCI)", "assay_in_all_cases": "NCI tumour cell line growth inhibition, 48 h", "key": {"ACHN renal": {"test_system": "ACHN renal"}, "CCRF-CEM leukemia": {"test_system": "CCRF-CEM leukemia"}, "HCT-116 colon": {"test_system": "HCT-116 colon"}, "HL-60(TB) leukemia": {"test_system": "HL-60(TB) leukemia"}, "M14 melanoma": {"test_system": "M14 melanoma"}, "MDA-MB-435": {"test_system": "MDA-MB-435"}, "NCI-H522 lung": {"test_system": "NCI-H522 lung"}, "OVCAR-8 ovarian": {"test_system": "OVCAR-8 ovarian"}, "SF-268 CNS": {"test_system": "SF-268 CNS"}, "SN12C renal": {"test_system": "SN12C renal"}}, "note": "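Compound exposure: 48 hours, 5 concentrations, 96-well plates. Here, GI50 denotes the concentration required for 50% inhibition of growth. The concentration for full growth arrest is given as TGI.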"}
{"smiles": "Cc1cc(S(=O)(=O)Nc2nc3cc(-c4ccsc4)sc3c(=O)n2N)c(S)cc1Cl", "values": [{"measurement": "GI50", "setting": "ACHN renal", "result": 30.4, "unit": "µM"}, {"measurement": "TGI", "setting": "ACHN renal", "result": "> 100", "unit": "µM"}, {"measurement": "GI50", "setting": "CCRF-CEM leukemia", "result": 64.7, "unit": "µM"}, {"measurement": "TGI", "setting": "CCRF-CEM leukemia", "result": "> 100", "unit": "µM"}, {"measurement": "GI50", "setting": "HCT-116 colon", "result": 47.4, "unit": "µM"}, {"measurement": "TGI", "setting": "HCT-116 colon", "result": "> 100", "unit": "µM"}, {"measurement": "GI50", "setting": "HL-60(TB) leukemia", "result": "> 100", "unit": "µM"}, {"measurement": "TGI", "setting": "HL-60(TB) leukemia", "result": "> 100", "unit": "µM"}, {"measurement": "GI50", "setting": "M14 melanoma", "result": "> 100", "unit": "µM"}, {"measurement": "TGI", "setting": "M14 melanoma", "result": "> 100", "unit": "µM"}, {"measurement": "GI50", "setting": "MDA-MB-435", "result": 85.3, "unit": "µM"}, {"measurement": "TGI", "setting": "MDA-MB-435", "result": "> 100", "unit": "µM"}, {"measurement": "GI50", "setting": "NCI-H522 lung", "result": "> 100", "unit": "µM"}, {"measurement": "TGI", "setting": "NCI-H522 lung", "result": "> 100", "unit": "µM"}, {"measurement": "GI50", "setting": "OVCAR-8 ovarian", "result": 68.1, "unit": "µM"}, {"measurement": "TGI", "setting": "OVCAR-8 ovarian", "result": "> 100", "unit": "µM"}, {"measurement": "GI50", "setting": "SF-268 CNS", "result": 35.7, "unit": "µM"}, {"measurement": "TGI", "setting": "SF-268 CNS", "result": "> 100", "unit": "µM"}, {"measurement": "GI50", "setting": "SN12C renal", "result": "> 100", "unit": "µM"}, {"measurement": "TGI", "setting": "SN12C renal", "result": "> 100", "unit": "µM"}]}
